Laboratory results published in publication PMC4450297, “Screening Active Compounds from Garcinia Species Native to China Reveals Novel Compounds Targeting the STAT/JAK Signaling Pathway” (BioMed Research International, 2015).

Each compound was assayed on A498 (assay: Cell panel screen (CellTiter-Glo)). Settings: A498 (listed under Lung), 20 micromolar, 72 hrs.
Assay type: cell-based, human
Summary of the method: (§1)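 Here, cancer cells cultured in medium with 10% FBS are treated for 72 h with each compound at 20 μM final. Viability is measured by ATP-dependent luminescence, and growth inhibition is calculated as a percentage against vehicle-only wells minus cell-free background.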

Compound	Percent Inhibition [%]
COC(=O)C1OC(Oc2cc(O)c3c(=O)cc(-c4ccc(O)cc4)oc3c2)C(O)C(O)C1O (stereo not drawn) [WZ-6]	13

The compounds below were run on A704 (assay: Cell panel screen (CellTiter-Glo)). Settings: A704 (Kidney), 20 micromolar, 72 hrs.
Assay type: cell-based, human
Summary of the method: as §1

Compound	Percent Inhibition [%]
COC(=O)C1OC(Oc2cc(O)c3c(=O)cc(-c4ccc(O)cc4)oc3c2)C(O)C(O)C1O (stereo not drawn) [WZ-6]	-9

What follows are compounds tested on BT-474 (assay: Cell panel screen (CellTiter-Glo)). Settings: BT-474 (Breast), 20 micromolar, 72 hrs.
Assay type: cell-based, human
Summary of the method: as §1

Compound	Percent Inhibition [%]
COC(=O)C1OC(Oc2cc(O)c3c(=O)cc(-c4ccc(O)cc4)oc3c2)C(O)C(O)C1O (stereo not drawn) [WZ-6]	-12

What follows are compounds tested on BT-549 (assay: Cell panel screen (CellTiter-Glo)). Settings: BT-549 (Breast), 20 micromolar, 72 hrs.
Assay type: cell-based, human
Summary of the method: as §1

Compound	Percent Inhibition [%]
COC(=O)C1OC(Oc2cc(O)c3c(=O)cc(-c4ccc(O)cc4)oc3c2)C(O)C(O)C1O (stereo not drawn) [WZ-6]	-16

The compounds below were run on Bel-7402 (assay: Cell panel screen (CellTiter-Glo)). Settings: Bel-7402 (Liver), 20 micromolar, 72 hrs.
Assay type: cell-based, human
Summary of the method: as §1

Compound	Percent Inhibition [%]
COC(=O)C1OC(Oc2cc(O)c3c(=O)cc(-c4ccc(O)cc4)oc3c2)C(O)C(O)C1O (stereo not drawn) [WZ-6]	1

The compounds below were run on C3A (assay: Cell panel screen (CellTiter-Glo)). Settings: C3A (Liver), 20 micromolar, 72 hrs.
Assay type: cell-based, human
Summary of the method: as §1

Compound	Percent Inhibition [%]
COC(=O)C1OC(Oc2cc(O)c3c(=O)cc(-c4ccc(O)cc4)oc3c2)C(O)C(O)C1O (stereo not drawn) [WZ-6]	-1

The compounds below were run on C8166 (assay: Cell panel screen (CellTiter-Glo)). Settings: C8166 (Leukemia), 20 micromolar, 72 hrs.
Assay type: cell-based, human
Summary of the method: as §1

Compound	Percent Inhibition [%]
COC(=O)C1OC(Oc2cc(O)c3c(=O)cc(-c4ccc(O)cc4)oc3c2)C(O)C(O)C1O (stereo not drawn) [WZ-6]	-15

Each compound was assayed on CCF-STTG1 (assay: Cell panel screen (CellTiter-Glo)). Settings: CCF-STTG1 (Brain), 20 micromolar, 72 hrs.
Assay type: cell-based, human
Summary of the method: as §1

Compound	Percent Inhibition [%]
COC(=O)C1OC(Oc2cc(O)c3c(=O)cc(-c4ccc(O)cc4)oc3c2)C(O)C(O)C1O (stereo not drawn) [WZ-6]	-3

These compounds were tested on CW-2 (assay: Cell panel screen (CellTiter-Glo)). Settings: CW-2 (Colon), 20 micromolar, 72 hrs.
Assay type: cell-based, human
Summary of the method: as §1

Compound	Percent Inhibition [%]
COC(=O)C1OC(Oc2cc(O)c3c(=O)cc(-c4ccc(O)cc4)oc3c2)C(O)C(O)C1O (stereo not drawn) [WZ-6]	12

Each compound was assayed on ChaGo-K-1 (assay: Cell panel screen (CellTiter-Glo)). Settings: ChaGo-K-1 (Lung), 20 micromolar, 72 hrs.
Assay type: cell-based, human
Summary of the method: as §1

Compound	Percent Inhibition [%]
COC(=O)C1OC(Oc2cc(O)c3c(=O)cc(-c4ccc(O)cc4)oc3c2)C(O)C(O)C1O (stereo not drawn) [WZ-6]	-16

What follows are compounds tested on Colo 205 (assay: Cell panel screen (CellTiter-Glo)). Settings: Colo 205, 20 micromolar, 72 hrs.
Assay type: cell-based, human
Summary of the method: as §1

Compound	Percent Inhibition [%]
COC(=O)C1OC(Oc2cc(O)c3c(=O)cc(-c4ccc(O)cc4)oc3c2)C(O)C(O)C1O (stereo not drawn) [WZ-6]	4

The compounds below were run on HCC1395 (assay: Cell panel screen (CellTiter-Glo)). Settings: HCC1395 (Breast), 20 micromolar, 72 hrs.
Assay type: cell-based, human
Summary of the method: as §1

Compound	Percent Inhibition [%]
COC(=O)C1OC(Oc2cc(O)c3c(=O)cc(-c4ccc(O)cc4)oc3c2)C(O)C(O)C1O (stereo not drawn) [WZ-6]	21

What follows are compounds tested on HCC1569 (assay: Cell panel screen (CellTiter-Glo)). Settings: HCC1569 (Breast), 20 micromolar, 72 hrs.
Assay type: cell-based, human
Summary of the method: as §1

Compound	Percent Inhibition [%]
COC(=O)C1OC(Oc2cc(O)c3c(=O)cc(-c4ccc(O)cc4)oc3c2)C(O)C(O)C1O (stereo not drawn) [WZ-6]	-18

Each compound was assayed on HCC1599 (assay: Cell panel screen (CellTiter-Glo)). Settings: HCC1599 (Breast), 20 micromolar, 72 hrs.
Assay type: cell-based, human
Summary of the method: as §1

Compound	Percent Inhibition [%]
COC(=O)C1OC(Oc2cc(O)c3c(=O)cc(-c4ccc(O)cc4)oc3c2)C(O)C(O)C1O (stereo not drawn) [WZ-6]	12

What follows are compounds tested on HCC1937 (assay: Cell panel screen (CellTiter-Glo)). Settings: HCC1937 (Breast), 20 micromolar, 72 hrs.
Assay type: cell-based, human
Summary of the method: as §1

Compound	Percent Inhibition [%]
COC(=O)C1OC(Oc2cc(O)c3c(=O)cc(-c4ccc(O)cc4)oc3c2)C(O)C(O)C1O (stereo not drawn) [WZ-6]	3

What follows are compounds tested on HEC-1-A (assay: Cell panel screen (CellTiter-Glo)). Settings: HEC-1-A (Uterus), 20 micromolar, 72 hrs.
Assay type: cell-based, human
Summary of the method: as §1

Compound	Percent Inhibition [%]
COC(=O)C1OC(Oc2cc(O)c3c(=O)cc(-c4ccc(O)cc4)oc3c2)C(O)C(O)C1O (stereo not drawn) [WZ-6]	1

Each compound was assayed on HGC-27 (assay: Cell panel screen (CellTiter-Glo)). Settings: HGC-27 (Stomach), 20 micromolar, 72 hrs.
Assay type: cell-based, human
Summary of the method: as §1

Compound	Percent Inhibition [%]
COC(=O)C1OC(Oc2cc(O)c3c(=O)cc(-c4ccc(O)cc4)oc3c2)C(O)C(O)C1O (stereo not drawn) [WZ-6]	-8

Each compound was assayed on HPAF-II (assay: Cell panel screen (CellTiter-Glo)). Settings: HPAF-II (Pancreas), 20 micromolar, 72 hrs.
Assay type: cell-based, human
Summary of the method: as §1

Compound	Percent Inhibition [%]
COC(=O)C1OC(Oc2cc(O)c3c(=O)cc(-c4ccc(O)cc4)oc3c2)C(O)C(O)C1O (stereo not drawn) [WZ-6]	-14

What follows are compounds tested on HT-1197 (assay: Cell panel screen (CellTiter-Glo)). Settings: HT-1197 (Urinary bladder), 20 micromolar, 72 hrs.
Assay type: cell-based, human
Summary of the method: as §1

Compound	Percent Inhibition [%]
COC(=O)C1OC(Oc2cc(O)c3c(=O)cc(-c4ccc(O)cc4)oc3c2)C(O)C(O)C1O (stereo not drawn) [WZ-6]	16

These compounds were tested on J82 (assay: Cell panel screen (CellTiter-Glo)). Settings: J82 (Urinary bladder), 20 micromolar, 72 hrs.
Assay type: cell-based, human
Summary of the method: as §1

Compound	Percent Inhibition [%]
COC(=O)C1OC(Oc2cc(O)c3c(=O)cc(-c4ccc(O)cc4)oc3c2)C(O)C(O)C1O (stereo not drawn) [WZ-6]	-5

What follows are compounds tested on M059J (assay: Cell panel screen (CellTiter-Glo)). Settings: M059J (Brain), 20 micromolar, 72 hrs.
Assay type: cell-based, human
Summary of the method: as §1

Compound	Percent Inhibition [%]
COC(=O)C1OC(Oc2cc(O)c3c(=O)cc(-c4ccc(O)cc4)oc3c2)C(O)C(O)C1O (stereo not drawn) [WZ-6]	2

The compounds below were run on MSTO-211-H (assay: Cell panel screen (CellTiter-Glo)). Settings: MSTO-211-H (Lung), 20 micromolar, 72 hrs.
Assay type: cell-based, human
Summary of the method: as §1

Compound	Percent Inhibition [%]
COC(=O)C1OC(Oc2cc(O)c3c(=O)cc(-c4ccc(O)cc4)oc3c2)C(O)C(O)C1O (stereo not drawn) [WZ-6]	6

The compounds below were run on NCI-H1623 (assay: Cell panel screen (CellTiter-Glo)). Settings: NCI-H1623 (Lung), 20 micromolar, 72 hrs.
Assay type: cell-based, human
Summary of the method: as §1

Compound	Percent Inhibition [%]
COC(=O)C1OC(Oc2cc(O)c3c(=O)cc(-c4ccc(O)cc4)oc3c2)C(O)C(O)C1O (stereo not drawn) [WZ-6]	-8

What follows are compounds tested on NCI-H1694 (assay: Cell panel screen (CellTiter-Glo)). Settings: NCI-H1694 (Lung), 20 micromolar, 72 hrs.
Assay type: cell-based, human
Summary of the method: as §1

Compound	Percent Inhibition [%]
COC(=O)C1OC(Oc2cc(O)c3c(=O)cc(-c4ccc(O)cc4)oc3c2)C(O)C(O)C1O (stereo not drawn) [WZ-6]	-9

Each compound was assayed on NCI-H1770 (assay: Cell panel screen (CellTiter-Glo)). Settings: NCI-H1770 (Lung), 20 micromolar, 72 hrs.
Assay type: cell-based, human
Summary of the method: as §1

Compound	Percent Inhibition [%]
COC(=O)C1OC(Oc2cc(O)c3c(=O)cc(-c4ccc(O)cc4)oc3c2)C(O)C(O)C1O (stereo not drawn) [WZ-6]	-1

These compounds were tested on NCI-H2347 (assay: Cell panel screen (CellTiter-Glo)). Settings: NCI-H2347 (Lung), 20 micromolar, 72 hrs.
Assay type: cell-based, human
Summary of the method: as §1

Compound	Percent Inhibition [%]
COC(=O)C1OC(Oc2cc(O)c3c(=O)cc(-c4ccc(O)cc4)oc3c2)C(O)C(O)C1O (stereo not drawn) [WZ-6]	-3

These compounds were tested on NCI-H2405 (assay: Cell panel screen (CellTiter-Glo)). Settings: NCI-H2405 (Lung), 20 micromolar, 72 hrs.
Assay type: cell-based, human
Summary of the method: as §1

Compound	Percent Inhibition [%]
COC(=O)C1OC(Oc2cc(O)c3c(=O)cc(-c4ccc(O)cc4)oc3c2)C(O)C(O)C1O (stereo not drawn) [WZ-6]	-12

The compounds below were run on NCI-H28 (assay: Cell panel screen (CellTiter-Glo)). Settings: NCI-H28 (Lung), 20 micromolar, 72 hrs.
Assay type: cell-based, human
Summary of the method: as §1

Compound	Percent Inhibition [%]
COC(=O)C1OC(Oc2cc(O)c3c(=O)cc(-c4ccc(O)cc4)oc3c2)C(O)C(O)C1O (stereo not drawn) [WZ-6]	6

Each compound was assayed on NCI-H524 (assay: Cell panel screen (CellTiter-Glo)). Settings: NCI-H524 (Lung), 20 micromolar, 72 hrs.
Assay type: cell-based, human
Summary of the method: as §1

Compound	Percent Inhibition [%]
COC(=O)C1OC(Oc2cc(O)c3c(=O)cc(-c4ccc(O)cc4)oc3c2)C(O)C(O)C1O (stereo not drawn) [WZ-6]	-11

The compounds below were run on Panc 03.27 (assay: Cell panel screen (CellTiter-Glo)). Settings: Panc 03.27 (Pancreas), 20 micromolar, 72 hrs.
Assay type: cell-based, human
Summary of the method: as §1

Compound	Percent Inhibition [%]
COC(=O)C1OC(Oc2cc(O)c3c(=O)cc(-c4ccc(O)cc4)oc3c2)C(O)C(O)C1O (stereo not drawn) [WZ-6]	-4

What follows are compounds tested on RL95 (assay: Cell panel screen (CellTiter-Glo)). Settings: RL95 (Uterus), 20 micromolar, 72 hrs.
Assay type: cell-based, human
Summary of the method: as §1

Compound	Percent Inhibition [%]
COC(=O)C1OC(Oc2cc(O)c3c(=O)cc(-c4ccc(O)cc4)oc3c2)C(O)C(O)C1O (stereo not drawn) [WZ-6]	-5

What follows are compounds tested on SW13 (assay: Cell panel screen (CellTiter-Glo)). Settings: SW13 (Adrenal gland), 20 micromolar, 72 hrs.
Assay type: cell-based, human
Summary of the method: as §1

Compound	Percent Inhibition [%]
COC(=O)C1OC(Oc2cc(O)c3c(=O)cc(-c4ccc(O)cc4)oc3c2)C(O)C(O)C1O (stereo not drawn) [WZ-6]	1

These compounds were tested on T47D (assay: Cell panel screen (CellTiter-Glo)). Settings: T47D (Breast), 20 micromolar, 72 hrs.
Assay type: cell-based, human
Summary of the method: as §1

Compound	Percent Inhibition [%]
COC(=O)C1OC(Oc2cc(O)c3c(=O)cc(-c4ccc(O)cc4)oc3c2)C(O)C(O)C1O (stereo not drawn) [WZ-6]	4

These compounds were tested on T98G (assay: Cell panel screen (CellTiter-Glo)). Settings: T98G (Brain), 20 micromolar, 72 hrs.
Assay type: cell-based, human
Summary of the method: as §1

Compound	Percent Inhibition [%]
COC(=O)C1OC(Oc2cc(O)c3c(=O)cc(-c4ccc(O)cc4)oc3c2)C(O)C(O)C1O (stereo not drawn) [WZ-6]	4

The compounds below were run on TCCSUP (assay: Cell panel screen (CellTiter-Glo)). Settings: TCCSUP (Urinary bladder), 20 micromolar, 72 hrs.
Assay type: cell-based, human
Summary of the method: as §1

Compound	Percent Inhibition [%]
COC(=O)C1OC(Oc2cc(O)c3c(=O)cc(-c4ccc(O)cc4)oc3c2)C(O)C(O)C1O (stereo not drawn) [WZ-6]	8

Each compound was assayed on ZR-75-30 (assay: Cell panel screen (CellTiter-Glo)). Settings: ZR-75-30 (Breast), 20 micromolar, 72 hrs.
Assay type: cell-based, human
Summary of the method: as §1

Compound	Percent Inhibition [%]
COC(=O)C1OC(Oc2cc(O)c3c(=O)cc(-c4ccc(O)cc4)oc3c2)C(O)C(O)C1O (stereo not drawn) [WZ-6]	-2
